Experimental findings from patent US20260234157A1, “COMPOUND AND METHOD FOR TARGETED DEGRADATION OF ANDROGEN RECEPTOR” (Gan & Lee Pharmaceuticals Co., Ltd., priority 2023, published 2026) are described below.

Residue numbers refer to the chain shown, from its start.

The first test concerns the target T1, AR protein (Homo sapiens, UniProt P10275, T878A).
T1 construct: degradation activity of the compounds disclosed in the present disclosure on AR protein in LNCaP cells; host or cells: LNCaP FGC
T1 sequence (P10275 1-920 T878A): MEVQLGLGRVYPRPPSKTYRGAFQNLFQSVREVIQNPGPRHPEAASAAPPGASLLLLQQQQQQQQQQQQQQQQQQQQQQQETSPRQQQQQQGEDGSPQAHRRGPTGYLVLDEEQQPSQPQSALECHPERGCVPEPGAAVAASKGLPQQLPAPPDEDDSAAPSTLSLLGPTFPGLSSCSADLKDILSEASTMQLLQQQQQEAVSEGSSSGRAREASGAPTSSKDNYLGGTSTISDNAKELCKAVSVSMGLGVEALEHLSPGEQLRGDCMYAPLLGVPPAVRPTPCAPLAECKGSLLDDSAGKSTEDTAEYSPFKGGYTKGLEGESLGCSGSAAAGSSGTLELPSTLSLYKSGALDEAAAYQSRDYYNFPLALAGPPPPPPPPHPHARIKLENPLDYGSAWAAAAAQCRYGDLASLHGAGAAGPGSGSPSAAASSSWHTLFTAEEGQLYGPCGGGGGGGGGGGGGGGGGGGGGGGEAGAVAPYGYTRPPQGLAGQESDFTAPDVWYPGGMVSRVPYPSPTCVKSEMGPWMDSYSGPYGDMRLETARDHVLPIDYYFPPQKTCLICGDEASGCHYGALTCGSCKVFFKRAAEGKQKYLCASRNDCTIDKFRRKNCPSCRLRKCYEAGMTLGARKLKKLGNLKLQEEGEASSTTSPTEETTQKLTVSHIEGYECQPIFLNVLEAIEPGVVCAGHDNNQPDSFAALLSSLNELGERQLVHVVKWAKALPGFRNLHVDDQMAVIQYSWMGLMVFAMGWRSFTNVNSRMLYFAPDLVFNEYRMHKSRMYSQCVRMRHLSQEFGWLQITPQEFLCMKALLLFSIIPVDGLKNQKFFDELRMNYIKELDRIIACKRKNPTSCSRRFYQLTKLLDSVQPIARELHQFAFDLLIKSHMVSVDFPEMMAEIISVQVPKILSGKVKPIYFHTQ
Nature of the test: Degradation of AR protein in LNCaP cells (Western blot). The class given is cell-based. Particulars: LNCaP cells, compound 10 nM, 8 hours, Western blot grayscale, GAPDH internal reference; read-out: Degradation rates of the AR protein in LNCaP cells, 10 nM (%). The procedure, abridged: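 Percent AR degradation was derived from GAPDH-normalised Western blot band intensities (infrared detection) in LNCaP lysates.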
Turning to `CC1(CN2CC3(CCc4cc5c(cc4O3)C(=O)N(C3CCC(=O)NC3=O)C5=O)C2)CCN(c2ccc(C(=O)N[C@H]3CC[C@H](Oc4ccc(C#N)c(Cl)c4)CC3)nn2)CC1` (stereo partly drawn) [Compound 2], the inhibition at 0.01 µM is 66%.
Still for that read-out and setting: for `N#Cc1ccc(O[C@H]2CC[C@H](NC(=O)c3ccc(N4CC5(CCc6cc7c(cc6O5)C(=O)N(C5CCC(=O)NC5=O)C7=O)C4)nn3)CC2)cc1Cl` (stereo partly drawn) [Compound 6] the value was 58%.
Same read-out and setting: next, `N#Cc1ccc(O[C@H]2CC[C@H](NC(=O)c3ccc(N4CCC(CN5CC6(CCc7cc8c(cc7O6)CN(C6CCC(=O)NC6=O)C8=O)C5)CC4)nn3)CC2)cc1Cl` (stereo partly drawn) [Compound 7]: 86%.

The same test, now with this note: LNCaP cells, compound 100 nM, 8 hours, Western blot grayscale, GAPDH internal reference; read-out: Degradation rates of the AR protein in LNCaP cells, 100 nM (%).
Take `CC1(CN2CC3(CCc4cc5c(cc4O3)C(=O)N(C3CCC(=O)NC3=O)C5=O)C2)CCN(c2ccc(C(=O)N[C@H]3CC[C@H](Oc4ccc(C#N)c(Cl)c4)CC3)nn2)CC1` (stereo partly drawn) [Compound 2]: the inhibition at 0.1 µM was 50%.
With `N#Cc1ccc(O[C@H]2CC[C@H](NC(=O)c3ccc(N4CC5(CCc6cc7c(cc6O5)C(=O)N(C5CCC(=O)NC5=O)C7=O)C4)nn3)CC2)cc1Cl` (stereo partly drawn) [Compound 6], the inhibition at 0.1 µM is 46%.
On to `N#Cc1ccc(O[C@H]2CC[C@H](NC(=O)c3ccc(N4CCC(CN5CC6(CCc7cc8c(cc7O6)CN(C6CCC(=O)NC6=O)C8=O)C5)CC4)nn3)CC2)cc1Cl` (stereo partly drawn) [Compound 7], for which the inhibition at 0.1 µM was 79%.

Another test addresses T2, AR protein (Homo sapiens, UniProt P10275).
T2 construct: degradation activity of the compounds disclosed in the present disclosure on AR protein in VCaP cells; host or cells: VCaP
T2 sequence (P10275 1-920): T1 sequence (P10275 1-920 T878A) with A878T
Nature of the test: Degradation of AR protein in VCaP cells (Western blot). Particulars: compound at 10 nM, 8 hours, read-out: Degradation rate of the AR protein in VCaP cells, 10 nM (%). The class given is cell-based. The procedure, abridged:
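Western blot readout: AR band grayscale normalised to GAPDH, used to derive degradation rate. Lysates came from VCaP cells exposed to compound for 8 h, with solvent controls run in parallel.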
For the compound `CC1(CN2CC3(CCc4cc5c(cc4O3)C(=O)N(C3CCC(=O)NC3=O)C5=O)C2)CCN(c2ccc(C(=O)N[C@H]3CC[C@H](Oc4ccc(C#N)c(Cl)c4)CC3)nn2)CC1` (stereo partly drawn) [Compound 2], the inhibition at 0.01 µM came to 21%.
Take `N#Cc1ccc(O[C@H]2CC[C@H](NC(=O)c3ccc(N4CC5(CCc6cc7c(cc6O5)C(=O)N(C5CCC(=O)NC5=O)C7=O)C4)nn3)CC2)cc1Cl` (stereo partly drawn) [Compound 6]: the inhibition at 0.01 µM turned out to be 13%.
On the same count and under the same terms, for `N#Cc1ccc(O[C@H]2CC[C@H](NC(=O)c3ccc(N4CCC(CN5CC6(CCc7cc8c(cc7O6)CN(C6CCC(=O)NC6=O)C8=O)C5)CC4)nn3)CC2)cc1Cl` (stereo partly drawn) [Compound 7] the value was 72%.

Still in this test, the particulars now being: compound at 100 nM, 8 hours, read-out: Degradation rate of the AR protein in VCaP cells, 100 nM (%).
`CC1(CN2CC3(CCc4cc5c(cc4O3)C(=O)N(C3CCC(=O)NC3=O)C5=O)C2)CCN(c2ccc(C(=O)N[C@H]3CC[C@H](Oc4ccc(C#N)c(Cl)c4)CC3)nn2)CC1` (stereo partly drawn) [Compound 2]: the inhibition at 0.1 µM is 56%.
On the same count and under the same terms, for `N#Cc1ccc(O[C@H]2CC[C@H](NC(=O)c3ccc(N4CC5(CCc6cc7c(cc6O5)C(=O)N(C5CCC(=O)NC5=O)C7=O)C4)nn3)CC2)cc1Cl` (stereo partly drawn) [Compound 6] the value was 28%.
`N#Cc1ccc(O[C@H]2CC[C@H](NC(=O)c3ccc(N4CCC(CN5CC6(CCc7cc8c(cc7O6)CN(C6CCC(=O)NC6=O)C8=O)C5)CC4)nn3)CC2)cc1Cl` (stereo partly drawn) [Compound 7]: the inhibition at 0.1 µM is 79%.

A further test relates to LNCaP FGC cells. The test can be described thus: Inhibition of proliferation of LNCaP cells (WST-8). Format: cell-based. Particulars: Homo sapiens, LNCaP, 96 h, LNCaP FGC cells, 96 hours, WST-8 absorbance at 450 nm; read-out: IC50 for inhibiting the proliferation of LNCaP cells. How it is done:
The cells were cultured in a cell culture incubator with 5% CO2 at 37° C. overnight. […] On the sixth day, 96 well plates were taken out, and 20 μL of WST-8 (Beytime, C0040) reagent was added to each well.
Background: Tetrazolium dyes change colour on reduction, which living cells bring about.
For the compound `CC1(CN2CC3(CCc4cc5c(cc4O3)C(=O)N(C3CCC(=O)NC3=O)C5=O)C2)CCN(c2ccc(C(=O)N[C@H]3CC[C@H](Oc4ccc(C#N)c(Cl)c4)CC3)nn2)CC1` (stereo partly drawn) [Compound 2], the IC50 was 1.25 µM.
Still for that read-out and setting: next, `N#Cc1ccc(O[C@H]2CC[C@H](NC(=O)c3ccc(N4CC5(CCc6cc7c(cc6O5)C(=O)N(C5CCC(=O)NC5=O)C7=O)C4)nn3)CC2)cc1Cl` (stereo partly drawn) [Compound 6]: 5.17 µM.
On the same count and under the same terms, for `N#Cc1ccc(O[C@H]2CC[C@H](NC(=O)c3ccc(N4CCC(CN5CC6(CCc7cc8c(cc7O6)CN(C6CCC(=O)NC6=O)C8=O)C5)CC4)nn3)CC2)cc1Cl` (stereo partly drawn) [Compound 7] the value was 1.57 µM.

Another test deals with VCaP cells. Nature of the test: Inhibition of proliferation of VCaP cells (WST-8). The class given is cell-based. The settings on record: Homo sapiens; VCaP cells, 168 hours, WST-8 absorbance at 450 nm; read-out: IC50 for inhibiting the proliferation of VCaP cells. How it is done: The inhibitory activity of the compounds disclosed in the present disclosure on the proliferation of VCaP cells
On the first day of the experiment, […] were inoculated in 96 well plates at a density of 15000 cells per well using DMEM medium containing 10% fetal bovine serum, with 100 μL of cell suspension per well. The cells were cultured in a cell culture incubator with 5% CO2 at 37° C. overnight. […] On the ninth day, 96 well plates were taken out, and 20 μL of WST-8 (Beytime, C0040) reagent was added to each well.
Take `CC1(CN2CC3(CCc4cc5c(cc4O3)C(=O)N(C3CCC(=O)NC3=O)C5=O)C2)CCN(c2ccc(C(=O)N[C@H]3CC[C@H](Oc4ccc(C#N)c(Cl)c4)CC3)nn2)CC1` (stereo partly drawn) [Compound 2]: the IC50 is 3.91 µM.
On the same count and under the same terms, next, `N#Cc1ccc(O[C@H]2CC[C@H](NC(=O)c3ccc(N4CC5(CCc6cc7c(cc6O5)C(=O)N(C5CCC(=O)NC5=O)C7=O)C4)nn3)CC2)cc1Cl` (stereo partly drawn) [Compound 6]: 7.5 µM.
Same read-out and setting: next, `N#Cc1ccc(O[C@H]2CC[C@H](NC(=O)c3ccc(N4CCC(CN5CC6(CCc7cc8c(cc7O6)CN(C6CCC(=O)NC6=O)C8=O)C5)CC4)nn3)CC2)cc1Cl` (stereo partly drawn) [Compound 7]: 3.54 µM.
